Source: publication PMC8853709, “Synthesis, computational studies, tyrosinase inhibitory kinetics and antimelanogenic activity of hydroxy substituted 2-[(4-acetylphenyl)amino]-2-oxoethyl derivatives” (Journal of Enzyme Inhibition and Medicinal Chemistry, 2019)
“Also recorded” adds a separate entry of the source. Where two headings read alike, the source gives them in different places.

Assays:
[1] = biological target: T1, mushroom tyrosinase (EC 1.14.18.1) (Agaricus bisporus, UniProt C7FF04); test: Mushroom tyrosinase inhibition assay (L-DOPA, dopachrome absorbance); type: biochemical, Agaricusbisporus
T1 construct: purchased Sigma Chemical Co., ST; Louis, MO
T1 sequence (C7FF04 2-392): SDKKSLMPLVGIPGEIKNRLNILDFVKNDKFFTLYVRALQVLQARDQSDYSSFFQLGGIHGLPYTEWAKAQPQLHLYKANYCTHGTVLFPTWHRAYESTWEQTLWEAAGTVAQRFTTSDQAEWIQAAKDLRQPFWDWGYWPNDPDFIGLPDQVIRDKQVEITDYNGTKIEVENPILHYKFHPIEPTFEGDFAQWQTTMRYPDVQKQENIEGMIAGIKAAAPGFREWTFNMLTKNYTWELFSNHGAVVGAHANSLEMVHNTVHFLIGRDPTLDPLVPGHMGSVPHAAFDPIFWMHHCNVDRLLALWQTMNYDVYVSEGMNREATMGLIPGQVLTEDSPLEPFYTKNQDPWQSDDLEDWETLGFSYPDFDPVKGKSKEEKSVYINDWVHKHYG
Description: The mushroom tyrosinase (EC 1.14.18.1) (Sigma Chemical Co., ST. Louis, MO) was used for in vitro bioassays as described previously with some modifications[39]^,[40]. Briefly, 140 µL of phosphate buffer (20 mM, pH 6.8), 20 µL of mushroom tyrosinase (30 U/mL) and 20 µL of the inhibitor solution were placed in the wells of a 96-well micro plate. After pre-incubation for 10 min at room temperature, 20 µL of L-DOPA (3,4-dihydroxyphenylalanine) (0.85 mM) was added and the plate was further incubated at 25 °C for 20 min. Subsequently the absorbance of dopachrome was measured at 492 nm using a micro plate reader (OPTI Max, Tunable). Kojic acid was used as a reference inhibitor and for negative tyrosinase inhibitor phosphate buffer was used instead of the inhibitor solution. The extent of inhibition by the test compounds was expressed as the percentage of concentration necessary to achieve 50% inhibition (IC50). Each concentration was analysed in three independent experiments run in triplicate. The IC50 values were determined by the data analysis and graphing software Origin 8.6, 64-bit.

[2] = tested on: murine melanoma (B16F10) cells; test: Melanin content measurement; type: cell-based
Description: For melanin measurement, melanoma (1.5 × 10^5) cells were seeded in cell culture plates for 24 h at 37 °C and 5% CO2incubator. Then cells were incubated with various concentrations of 5c in cell culture medium for further 24 h. Later, assay for melanin measurement was performed following already reported method. Briefly, the cells were trypsinised and centrifuged for 5 min at 1000 rpm. The cell pellet was dissolved in 1 N NaOH at 60 °C for 1 h and melanin content was measured spectrophotometrically at 405 nm wavelengths using a microplate reader (BioTek, synergy HT, Winooski, VT).

[3] = tested on: murine melanoma (B16F10) cells; test: MTT cell viability assay and cell morphology; type: cell-based; settings: 24 h
Description: (§1) To test the safety level of 5c compound, MTT assay (3-(4,5-dimethylthiazol-2-yl)-2,5-diphenyltetrazolium Bromide) was performed. The murine melanoma (B16F10) cells (1.5 × 10^5 cells/ml) were seeded in 24 well plates (SPL Korea) with DMEM medium at 37 °C and 5% CO2 incubator. Test compound 5c was dissolved in DMSO and diluted with culture medium to get the final concentrations of 0 (control), 6, 12 and 24 µg/ml, and then added to the cells for 24 h further incubation. The MTT assay was then conducted, and results were calculated in percentage of control. In addition, cellular images were taken by inverted fluorescent microscope (Nikon, ECLIPSE, Tokyo, Japan) to access the 5c effect on cell morphology.

[4] = MTT cell viability assay and cell morphology; type: cell-based, murine; settings: mouse, B16F10 murine melanoma cells, B16F10, 24 µg/ml, read-out: toxic effect in MTT cell viability assay, compared to control normalized to 100%
Description: as §1

mushroom tyrosinase = biological target: T2, mushroom tyrosinase (Agaricus bisporus, UniProt C7FF04); test: Kinetic analysis of the inhibition of mushroom tyrosinase (Lineweaver–Burk, Dixon, enzyme concentration plots); type: biochemical, Agaricusbisporus; settings: for type of inhibition (Lineweaver–Burk plot) / Ki: diphenolase activity, L-DOPA; for Ki: read-out: dissociation constant Ki (Dixon plot); for mode of binding (reversibility of enzyme–inhibitor complex): remaining enzyme activity versus enzyme concentration 1.25, 2.5 and 5 µg/mL
T2 construct: purchased Sigma Chemical Co., ST; Louis, MO
T2 sequence (C7FF04 2-392): as above
Description: To understand the mechanism of mushroom tyrosinase inhibition by compounds 5c and 5d, kinetic studies were conducted. […] Enzyme inhibition kinetics was analysed by Lineweaver–Burk plot and Dixon plots to determine the type of inhibition and inhibition constant (KI).
The inhibitory mechanism of mushroom tyrosinase by compounds 5c (in concentrations: 0.0, 0.0011, 0.0022, 0.0045, 0.0090 and 0.018 µM) and 5d (in concentrations: 0.0, 1.75, 3.5, 7.0, 14, 28 and 56 µM) were investigated.
A series of experiments were performed to determine the inhibition kinetics by following method[41]^,[42]. Inhibitor 5c with concentrations […], 0.0022, 0.0045, 0.009, 0.018 µM and 5d with concentrations 0.0, 1.75, 3.5, 7, 14 and 28 µM, respectively, were used. Substrate L-DOPA concentration was among 0.0625–2 mM in all kinetic study. Pre-incubation and measurement time was the same as discussed in mushroom tyrosinase inhibition assay protocol. The formation of DOPAchrome was continuously monitored at 475 nm for 5 min at a 30 s interval in the microplate reader after addition of enzyme. The inhibition type on the enzyme was assayed by Lineweaver–Burk plots of inverse of velocities (1/V) versus inverse of substrate concentration 1/[S] mM^−1, and the inhibition constant Ki was determined by the Dixon plot of 1/V versus inhibitor concentrations.

[5] = L-DOPA substrate, pH 6.8, 25 °C, read-out: Mushroom tyrosinase inhibition IC50

Compound: CC(=O)c1ccc(NC(=O)CCl)cc1 [Compound 1]
- IC50 [1]: 54.5 ± 3.1 µM

Compound: CC(=O)c1ccc(NC(=O)COC(=O)c2cccc(O)c2)cc1 [Compound 3a, 2-[(4-Acetylphenyl)amino]-2-oxoethyl 3-hydroxybenzoate]
- IC50 [1]: 325 ± 16.9 µM

Compound: CC(=O)c1ccc(NC(=O)COC(=O)c2ccc(O)cc2)cc1 [Compound 3b, 2-[(4-Acetylphenyl)amino]-2-oxoethyl 4-hydroxybenzoate]
- IC50 [1]: 319 ± 31.9 µM

Compound: CC(=O)c1ccc(NC(=O)COC(=O)c2ccc(O)cc2O)cc1 [Compound 3c, 2-[(4-Acetylphenyl)amino]-2-oxoethyl 2,4-dihydroxybenzoate]
- IC50 [1]: 145 ± 16.7 µM

Compound: CC(=O)c1ccc(NC(=O)COC(=O)c2ccc(O)c(O)c2)cc1 [Compound 3d, 2-[(4-Acetylphenyl)amino]-2-oxoethyl 3,4-dihydroxybenzoate]
- IC50 [1]: 257 ± 23.4 µM

Compound: CC(=O)c1ccc(NC(=O)COC(=O)c2cc(O)cc(O)c2)cc1 [Compound 3e]
- melting point: 249 to 251 °C
- IC50 [1]: 166 ± 14.2 µM

Compound: CC(=O)c1ccc(NC(=O)COC(=O)C=Cc2ccccc2)cc1 [Compound 5a, 2-[(4-Acetylphenyl)amino]-2-oxoethyl cinnamate]
- IC50 [1]: 63.5 ± 2.5 µM

Compound: CC(=O)c1ccc(NC(=O)COC(=O)/C=C/c2ccc(O)cc2)cc1 [Compound 5b, 2-[(4-Acetylphenyl)amino]-2-oxoethyl (E)-3-(4-hydroxyphenyl)acrylate]
- melting point: 226 to 228 °C
- IC50 [1]: 97.3 ± 5.8 µM

Compound: CC(=O)c1ccc(NC(=O)COC(=O)/C=C/c2ccc(O)cc2O)cc1 [Compound 5c, 2-[(4-Acetylphenyl)amino]-2-oxoethyl (E)-3-(2,4-dihydroxyphenyl)acrylate]
- melting point: 236 to 238 °C
- IC50 [1, 5]: 0.0089 ± 0.0004 µM
- antimelanogenic activity ([2]; B16F10, 12 µg/mL): produced antimelenogenic effects
- cellular melanin content as compared to control normalized to 100% ([2]; B16F10, 12 µg/ml, 24 h): 82%
- effect on cell viability (MTT) ([3]; B16F10, 12 µg/ml): safe and no significant effect and nontoxic
- effect on cell morphology ([3]; B16F10, 3, 6, 12 µg/ml): no effect on cell morphology
- viability at 24 h, 24 µg/ml [4]: 33.7%
- type of inhibition (Lineweaver–Burk plot) (mushroom tyrosinase): competitive inhibitor
- Ki (mushroom tyrosinase): 0.01 µM
- mode of binding (reversibility of enzyme–inhibitor complex) (mushroom tyrosinase): irreversibly bind; also recorded: irreversible mode of binding

Compound: CC(=O)c1ccc(NC(=O)COC(=O)/C=C/c2ccc(Cl)cc2)cc1 [Compound 5d, 2-[(4-Acetylphenyl)amino]-2-oxoethyl-(E)-3-(4-chlorophenyl)acrylate]
- IC50 [1, 5]: 8.26 ± 1.7 µM
- type of inhibition (Lineweaver–Burk plot) (mushroom tyrosinase): mixed-type inhibitor
- Ki (mushroom tyrosinase): 6 µM
- mode of binding (reversibility of enzyme–inhibitor complex) (mushroom tyrosinase): irreversibly bind; also recorded: irreversible inhibitor; also recorded: irreversible mode of binding
